Source: ChEMBL document CHEMBL1144379, “The development of monocyclic pyrazolone based cytokine synthesis inhibitors” (Bioorg Med Chem Lett, 2005)
≈ marks a conversion by molar mass, not a printed value.

Key:
THP-1 = assay: Inhibitory activity against lipopolysaccharide stimulated TNF-alpha production in THP-1 cells (human monocytic cells); format: functional, cell-based
[1] = Half life in rats; format: ADME; details: rat, in vivo
[2] = Aqueous solubility […]; format: physicochemical, Rattus norvegicus; details: aqueous medium
[3] = Bioavailability in rat; format: ADME, organism-based; details: in vivo
[4] = Metabolism measured as percent loss at 4 hours in rat hepatocytes; format: ADME, cell-based, Hepatocyte; details: read-out: Metabolism
[5] = Inhibition of Mitogen-activated protein kinase p38 alpha

| Compound | IC50 (THP-1) [nM] | also measured |
| --- | --- | --- |
| C[C@H](Nc1nccc(-c2c(-c3ccc(F)cc3)c(=O)n(C3CCN(C)CC3)n2C)n1)c1ccccc1 | 15 |  |
| C[C@H](Nc1nccc(-c2c(-c3ccc(F)cc3)c(=O)n(C)n2C)n1)C(C)(C)O | 3970 |  |
| COC[C@H](C)Nc1nccc(-c2c(-c3ccc(F)cc3)c(=O)n(C3CCNCC3)n2C)n1 | 261 |  |
| COC[C@@H](C)Nc1nccc(-c2c(-c3ccc(F)cc3)c(=O)n(C)n2C2CCNCC2)n1.O=C(O)C(F)(F)F | 75 | half-life [1]: 2.2 h; solubility [2]: > 30000 µg/mL; bioavailability [3]: 15%; metabolised at 4 h [4]: 0% |
| COCCn1c(-c2ccnc(N[C@H](C)COC)n2)c(-c2ccc(F)cc2)c(=O)n1C | 924 |  |
| C[C@H](Nc1nccc(-c2c(-c3ccc(F)cc3)c(=O)n(C3CCNCC3)n2C)n1)C(C)(C)O | 1080 |  |
| C[C@H](Nc1nccc(-c2c(-c3ccc(F)cc3)c(=O)n(C)n2C2CCNCC2)n1)c1ccccc1 | 155 |  |
| COC[C@H](C)Nc1nccc(-c2c(-c3ccc(F)cc3)c(=O)n(C)n2C)n1 | 1430 |  |
| C[C@H](Nc1nccc(-c2c(-c3ccc(F)cc3)c(=O)n(C3CCNCC3)n2C)n1)c1ccccc1.O=C(O)C(F)(F)F | 32 | half-life [1]: 3.2 h; solubility [2]: 650 µg/mL; bioavailability [3]: 17%; metabolised at 4 h [4]: 32% |
| CC(=O)N1CCC(n2c(=O)c(-c3ccc(F)cc3)c(-c3ccnc(N[C@@H](C)c4ccccc4)n3)n2C)CC1 | 14 |  |
| O=c1c(-c2ccc(F)cc2)c(-c2ccncc2)[nH]n1-c1ccc(Cl)cc1 | 4220 |  |
| CCOCn1nc(-c2ccncc2)c(-c2ccc(F)cc2)n1 | 1070 | IC50 [5]: 2430 nM |

Continued, in another order:

| IC50 (THP-1) [nM] | Compound | also measured |
| --- | --- | --- |
| 13 | C[C@H](Nc1nccc(-c2c(-c3ccc(F)cc3)c(=O)n(C)n2C)n1)c1ccccc1 | half-life [1]: 1.1 h; solubility [2]: 123 µg/mL (≈ 305 µM); bioavailability [3]: 32%; metabolised at 4 h [4]: 44% |
| 41 | CC[C@H](C)Nc1nccc(-c2c(-c3ccc(F)cc3)c(=O)n(C)n2C)n1 |  |
| 309 | COCCn1c(-c2ccnc(N[C@@H](C)c3ccccc3)n2)c(-c2ccc(F)cc2)c(=O)n1C | solubility [2]: 429 µg/mL (≈ 959 µM); metabolised at 4 h [4]: 30% |
| 647 | C[C@H](Nc1nccc(-c2c(-c3ccc(F)cc3)c(=O)n(C)n2C)n1)c1cccnc1 |  |
| > 5000 | C[C@H](Nc1nccc(-c2c(-c3ccc(F)cc3)c(=O)n(C)n2C)n1)c1ccncc1 |  |
| 288 | Cn1c(-c2ccnc(Oc3ccccc3)n2)c(-c2ccc(F)cc2)c(=O)n1C |  |
| 1430 | C[C@H](Nc1nccc(-c2c(-c3ccc(F)cc3)c(=O)n(C)n2C)n1)c1ccccn1 |  |
| 1430 | COCCn1c(-c2ccnc(Oc3ccccc3)n2)c(-c2ccc(F)cc2)c(=O)n1C |  |
| 120 | CCn1c(-c2ccnc(N[C@@H](C)c3ccccc3)n2)c(-c2ccc(F)cc2)c(=O)n1CC |  |
| 2650 | Cn1c(=O)c(-c2ccc(F)cc2)c(-c2ccnc(Oc3ccccc3)n2)n1C1CCNCC1 |  |
| 1810 | Cn1c(-c2ccnc(Oc3ccccc3)n2)c(-c2ccc(F)cc2)c(=O)n1C1CCNCC1 |  |
